The compounds below were run against HCV NS5A replicon GT-1a (assay: HCV NS5A replicon anti-viral activity (EC50), dual-reporter Renilla luciferase, GT-1a). Details: GT-1a replicon; read-out: Inhibitory activity against various HCV-NS5A subtypes(EC50, GT-1a to GT-6a) GT-1a.
Assay type: cell-based
Text: The autonomous replication level of HCV in liver cells in vitro is very low, and the only animal that can be infected by HCV is chimpanzee, therefore there is no appropriate animal model currently available for preclinical pharmacodynamic study. Some researchers have transplanted human liver tissue infected with HCV in vitro into immune deficient mice to establish an in vivo mice model, but these mice are hard to raise and the model is unstable and short of normal immunologic reaction. Moreover, the model has significant difference with the pathogenic process of hepatitis C, therefore, it has not been used for animal model to assess the action of anti-HCV medicine yet. The progress of the development of anti-viral drugs for the treatment of HCV infection had been very slow because the pathogenic mechanism and life cycle of HCV were unclear before 1999 due to the lack of cell culture system for effective multiplication of HCV. But researchers managed to achieve a breakthrough in 1999 after numerous attempts. An effective cell culture model-replicon system in which HCV is capable of autonomous replication in transfected human hepatic carcinoma cell line Huh-7 had been established in that year on the basis of subgenomic HCV RNA built with genetic engineering.
The above-mentioned cell culture model-replicon system which has been widely accepted in the industry is used in this invention for ex vivo experiments and subsequent assessment of drugs based on the experiment results.
The therapeutic effect of the compounds of this invention on HCV infection can be preliminarily assessed through the following preclinical in vitro inhibitory action test and can be further confirmed in clinical trials. Other methods used in the invention are also quite familiar to professionals in this field with ordinary technical knowledge. Method for testing the anti-viral activity(EC50) in HCV NS5A replicon system: • The viral replication level in infected cells was determined by testing Renilla luciferase with the newly established dual-reporter gene replicon system. There was a good linear relation between the expression level of the reporter gene and the HCV RNA replication level and viral protein expression level. The anti-viral activity was determined for 3 replicates in 3 replicate cells at five(5) 1:2 diluted concentration gradients, with 1 to 2 positive controls. The EC50 of the compounds was calculated in the end.
The compounds of the invention, or their stereoisomers, tautomers, esterified or amidated prodrugs, or pharmaceutically acceptable salts and mixtures have been subjected to test to determined their therapeutic effects in the treatment of HCV infection. […] Moreover, the results of 6a-6ep(Ia), 6fa-6gq(Ib) and reference compounds Ref-1(BMS-790052), Ref-2(GS5885), Ref-3 in HCV-NS5 inhibition test reveal that the cyclopentanyl/hexamethyleneamino radical containing linear polypeptide compounds 6a-6ep, 6fa-6gq and reference compounds Ref-1, Ref-2, Ref-3 have good HCV inhibitory results. […] The replicons GT-1a, GT-lb, GT-2a, GT-3a, GT-4a, GT-5a and GT-6a used for the test are routine replicons commercially available in this field. Table 1: HCV NS5A replicon inhibitory activity test results of compounds (6a-6gq) of the invention

SMILES | EC50 [nM]
COC(=O)N[C@H](C(=O)N1CCC[C@H]1c1nc2cc(-c3csc4c(-c5ccc(-c6c[nH]c([C@@H]7CCCN7C(=O)[C@H](NC(=O)OC)c7ccccc7)n6)cc5)csc34)ccc2[nH]1)C(C)C [Ref-4, IDX-719, reference compound] | 0.022

Same assay, conditions: GT-1a replicon; read-out: NS5A Inhibitory Activity (EC50 of GT-1a subtype inhibition)

SMILES | EC50 [nM]
COC(=O)N[C@H](C(=O)N1CCC[C@H]1c1nc2cc(-c3csc4c(-c5ccc(-c6c[nH]c([C@@H]7CCCN7C(=O)[C@H](NC(=O)OC)c7ccccc7)n6)cc5)csc34)ccc2[nH]1)C(C)C [Ref-4, IDX-719, reference compound] | 0.001 to 0.999

Same assay, conditions: Hepatitis C virus, GT1A, read-out: NS5A Inhibitory Activity (EC50 of GT-1a subtype inhibition)

SMILES | EC50 [nM]
COC(=O)N[C@H](C(=O)N1CC2(CC2)C[C@H]1c1nc(-c2ccc3c(c2)C(F)(F)c2cc(-c4ccc5[nH]c([C@@H]6[C@H]7CC[C@H](C7)N6C(=O)[C@@H](NC(=O)OC)C(C)C)nc5c4)ccc2-3)c[nH]1)C(C)C [Ref-2, GS5885, reference compound] | 0.001 to 0.999

Same assay, conditions: Hepatitis C virus, GT1A; GT-1a replicon; read-out: NS5A Inhibitory Activity (EC50 of GT-1a subtype inhibition)

SMILES | EC50 [nM]
COC(=O)N[C@H](C(=O)N1CCC[C@H]1c1ncc(-c2ccc(-c3ccc(-c4cnc([C@@H]5C=CCN5C(=O)[C@@H](NC(=O)N(C)C)C(C)C)[nH]4)cc3)cc2)[nH]1)C(C)C [6ci] | 0.001 to 0.999
COC(=O)N[C@H](C(=O)N1CC=C[C@H]1c1ncc(-c2ccc(-c3cc4sc(-c5cnc([C@@H]6CCCN6C(=O)[C@H](NC(=O)OC)c6ccccc6)[nH]5)cc4o3)cc2)[nH]1)C(C)C [6fq] | 0.001 to 0.999
COC(=O)N[C@H](C(=O)N1CCC[C@H]1c1nc(-c2ccc(-c3ccc(-c4cnc([C@@H]5CC6(CN5C(=O)[C@@H](NC(=O)OC)C(C)C)OCCO6)[nH]4)cc3)cc2)c[nH]1)C(C)C [6ds] | 0.001 to 0.999
COC(=O)N[C@H](C(=O)N1CCCC[C@H]1c1nc(-c2ccc(-c3ccc(-c4c[nH]c([C@@H]5COCCN5C(=O)[C@@H](NC(=O)OC)C(C)C)n4)cc3)cc2)c[nH]1)C(C)C [6aj] | 0.001 to 0.999
COC(=O)N[C@H](C(=O)N1CCC[C@H]1c1nc(-c2ccc(-c3ccc(-c4c[nH]c([C@@H]5C[C@@H](Oc6nc7ccccc7nc6-c6cccs6)CN5C(=O)[C@@H](NC(=O)OC)C(C)C)n4)cc3)cc2)c[nH]1)C(C)C [6w] | > 50
COC(=O)N[C@H](C(=O)N1CC=C[C@H]1c1ncc(-c2ccc(-c3ccc(-c4cnc([C@@H]5CN(S(=O)(=O)C(C)C)CN5C(=O)[C@@H](NC(=O)OC)C(C)C)[nH]4)cc3)cc2)[nH]1)C(C)C [6dd] | 0.001 to 0.999
COC(=O)N[C@H](C(=O)N1CCCC[C@H]1c1nc(-c2ccc(-c3ccc(-c4c[nH]c([C@@H]5C[C@H](OC(=O)N6Cc7cc8c(cc7C6)OCO8)CN5C(=O)[C@@H](NC(=O)OC)C(C)C)n4)cc3)cc2)c[nH]1)C(C)C [6ac] | 0.001 to 0.999
COC(=O)N[C@H](C(=O)N1CC=C[C@H]1c1nc(-c2ccc(-c3ccc(-c4c[nH]c([C@@H]5CCCN5C(=O)C5(NC(=O)OC)CC5)n4)cc3)cc2)c[nH]1)C(C)C [6bh] | 0.001 to 0.999
COC(=O)N[C@H](C(=O)N1CCC[C@H]1c1nc2ccc(-c3csc4c(-c5ccc(-c6ccc7nc([C@@H]8C=CCN8C(=O)[C@H](NC(=O)OC)c8ccccc8)[nH]c7c6)cc5)csc34)cc2[nH]1)C(C)C [6gq] | 0.001 to 0.999
COC(=O)NC(C(=O)N1CC=C[C@H]1c1ncc(-c2ccc(-c3ccc(-c4cnc([C@@H]5CCCN5C(=O)[C@@H](NC(=O)OC)C(C)C)[nH]4)cc3)cc2)[nH]1)c1ccccc1 (some centres unmarked) [6bx] | 0.001 to 0.999
COC(=O)NC(C(=O)N1CC=C[C@H]1c1ncc(-c2ccc(-c3ccc(-c4cnc([C@@H]5C=CCN5C(=O)C(NC(=O)OC)c5ccccc5)[nH]4)cc3)cc2)[nH]1)c1ccccc1 (some centres unmarked) [6ca] | 0.001 to 0.999
CC(C)[C@H](NC(=O)OC1CCCC1)C(=O)N1CC=C[C@H]1c1nc(-c2ccc(-c3ccc(-c4cnc([C@@H]5C=CCN5C(=O)[C@@H](NC(=O)OC5CCCC5)C(C)C)[nH]4)cc3)cc2)c[nH]1 [6bf] | > 50
COC(=O)N[C@H](C(=O)N1CCC[C@H]1c1ncc(-c2ccc(-c3ccc(-c4cnc([C@@H]5C=CCN5C(=O)[C@@H](NC(=O)OC)C5CCCCC5)[nH]4)cc3)cc2)[nH]1)C(C)C [6di] | 0.001 to 0.999
CNC(=O)NC(C(=O)N1CC=C[C@H]1c1ncc(-c2ccc(-c3ccc(-c4cnc([C@@H]5CCCN5C(=O)C(NC(=O)NC)c5ccccc5)[nH]4)cc3)cc2)[nH]1)c1ccccc1 (some centres unmarked) [6cf] | 0.001 to 0.999
COC(=O)NC(C(=O)N1CC=C[C@H]1c1nc(-c2ccc(-c3cc4sc(-c5c[nH]c([C@@H]6CCCN6C(=O)C(NC(=O)OC)c6ccccc6)n5)cc4s3)cc2)c[nH]1)c1ccccc1 (some centres unmarked) [6cc] | > 50
COC(=O)N[C@@H](C(=O)N1CC=C[C@H]1c1nc2ccc(-c3csc4c(-c5cnc([C@@H]6CCCN6C(=O)[C@H](NC(=O)OC)c6ccccc6)[nH]5)csc34)cc2[nH]1)c1ccccc1 [6gk] | 0.001 to 0.999

SMILES | EC50 [nM]
COC(=O)N[C@H](C(=O)N1CCC[C@H]1c1nc2ccc(-c3csc4c(-c5ccc(-c6cnc([C@@H]7C=CCN7C(=O)[C@H](NC(=O)OC)c7ccccc7)[nH]6)c(F)c5)csc34)cc2[nH]1)C(C)C [6fu] | 0.001 to 0.999
CN(C)C(=O)NC(C(=O)N1CC=C[C@H]1c1ncc(-c2ccc(-c3ccc(-c4cnc([C@@H]5CCCN5C(=O)C(NC(=O)N(C)C)c5ccccc5)[nH]4)cc3)cc2)[nH]1)c1ccccc1 (some centres unmarked) [6ce] | 0.001 to 0.999
COC(=O)N[C@H](C(=O)N1CC=C[C@H]1c1nc(-c2ccc(-c3ccc(-c4c[nH]c([C@@H]5CCCN5C(=O)C5(NC(=O)OC)CCCCC5)n4)cc3)cc2)c[nH]1)C(C)C [6bj] | 0.001 to 0.999
COC(=O)N[C@@H](C(=O)N1CC=C[C@H]1c1ncc(-c2ccc(-c3cc4sc(-c5cnc([C@@H]6CCCN6C(=O)[C@H](NC(=O)OC)c6ccccc6)[nH]5)cc4o3)cc2)[nH]1)c1ccccc1 [6fr] | 0.001 to 0.999
CC(C)(C)OC(=O)N[C@H](C(=O)N1CC=C[C@H]1c1ncc(-c2ccc(-c3ccc(-c4c[nH]c([C@@H]5CCCN5C(=O)[C@@H](NC(=O)OC(C)(C)C)C(C)(C)C)n4)cc3)cc2)[nH]1)C(C)(C)C [6bb] | > 50
CNC(=O)N[C@@H](C(=O)N1CCC[C@H]1c1ncc(-c2ccc(-c3ccc(-c4cnc([C@@H]5C=CCN5C(=O)[C@@H](NC(=O)OC)C(C)C)[nH]4)cc3)cc2)[nH]1)c1ccccc1 [6dg] | 0.001 to 0.999
COC(=O)N[C@H](C(=O)N1CC=C[C@H]1c1nc2ccc(-c3csc4c(-c5ccc(-c6cnc([C@@H]7CCCN7C(=O)[C@H](NC(=O)OC)c7ccccc7)[nH]6)cc5)csc34)cc2[nH]1)C(C)C [6fy] | 0.001 to 0.999
COC(=O)N[C@H](C(=O)N1CC=C[C@H]1c1ncc(-c2cccc3c(-c4ccc(-c5cnc([C@@H]6CCCN6C(=O)[C@@H](NC(=O)OC)C(C)C)[nH]5)cc4)cccc23)[nH]1)C(C)C [6eg] | 0.001 to 0.999
COC(=O)N[C@H](C(=O)N1CC=C[C@H]1c1ncc(-c2ccc(-c3ccc(-c4cnc([C@@H]5CN(S(C)(=O)=O)CN5C(=O)[C@@H](NC(=O)OC)C(C)C)[nH]4)cc3)cc2)[nH]1)C(C)C [6cz] | 0.001 to 0.999
COC(=O)N[C@H](C(=O)N1CCC[C@H]1c1nc2ccc(-c3ccc(-c4ccc5nc([C@@H]6C=CCN6C(=O)[C@H](NC(=O)OC)c6ccccc6)[nH]c5c4)c4c3CC3(CCCCC3)C4)cc2[nH]1)C(C)C [6ep] | 1 to 49.9
COC(=O)N[C@H](C(=O)N1CC=C[C@H]1c1ncc(-c2ccc(-c3ccc(-c4cnc([C@@H]5CN(C(=O)OC(C)(C)C)CN5C(=O)[C@@H](NC(=O)OC)C(C)C)[nH]4)cc3)cc2)[nH]1)C(C)C [6cw] | 0.001 to 0.999
COC(=O)N[C@H](C(=O)N1CC=C[C@H]1c1ncc(-c2ccc(-c3ccc(-c4cnc([C@@H]5CC(O)CN5C(=O)[C@@H](NC(=O)OC)C(C)C)[nH]4)cc3)cc2)[nH]1)C(C)C (some centres unmarked) [6dq] | 0.001 to 0.999
COC(=O)N[C@H](C(=O)N1CC=C[C@H]1c1ncc(-c2ccc(-c3ccc(-c4cnc([C@@H]5CCCN5C(=O)[C@@H](NC(=O)N(C)C)C(C)C)[nH]4)cc3)cc2)[nH]1)C(C)C [6df] | 0.001 to 0.999
COC(=O)N[C@H](C(=O)N1CN(C(=O)N2Cc3ccc4c(c3C2)OCO4)C[C@H]1c1ncc(-c2ccc(-c3cccc4c(-c5cnc([C@@H]6CCCN6C(=O)[C@@H](NC(=O)OC)C(C)C)[nH]5)cccc34)cc2)[nH]1)C(C)C [6ee] | 0.001 to 0.999
COC(=O)N[C@H](C(=O)N1CCC[C@H]1c1nc(-c2ccc(-c3ccc(-c4cnc([C@@H]5C[C@@H](OC(=O)N6Cc7ccc8c(c7C6)OCO8)CN5C(=O)[C@@H](NC(=O)OC)C(C)C)[nH]4)cc3)cc2)c[nH]1)C(C)C [6a] | 0.001 to 0.999

Same assay, conditions: Hepatitis C virus, genotype 1a / genotype 6a, read-out: Inhibitory activity against various HCV-NS5A subtypes(EC50, GT-1a to GT-6a) GT-1a

SMILES | EC50 [nM]
COC(=O)N[C@H](C(=O)N1CC2(CC2)C[C@H]1c1nc(-c2ccc3c(c2)C(F)(F)c2cc(-c4ccc5[nH]c([C@@H]6[C@H]7CC[C@H](C7)N6C(=O)[C@@H](NC(=O)OC)C(C)C)nc5c4)ccc2-3)c[nH]1)C(C)C [Ref-2, GS5885, reference compound] | 0.088
